Patent US10538567B2, “Compounds as peptidic trigonal GLP1/glucagon/GIP receptor agonists” (priority 2016, dated 2020)
Numbered stars: 1 amine (or outer) side, 2 acyl side, 3 side chain; on linkers, the order of the positions; unused ones are H or OH. Square brackets hold non-standard residues; d marks the D form. Side chains are listed from the residue outwards. Peptide text beside a SMILES is read from it. * marks the point of attachment. Adipoyl(4R-palmitoylamino) = CCCCCCCCCCCCCCCC(=O)N[C@H](CCC(=O)*)CC(=O)O; γGlu = O=C(O)[C@H](CCC(=O)[*:2])N[*:1]; AEEA = NCCOCCOCC(=O)O; Aib = CC(C)(N)C(=O)O

Columns and labels:
[1] = Thioflavin T (ThT) assay for physical stability (fibrillation); assay type: physicochemical; conditions: 3 mg/ml, 100 mM acetate pH 4.5 with m-cresol, 37° C. shaking
Source text: Low physical stability of a peptide solution may lead to amyloid fibril formation, which is observed as well-ordered, thread-like macromolecular structures in the sample, which eventually may lead to gel formation. Thioflavin T (ThT) is widely used to visualize and quantify the presence of misfolded protein aggregates. [Biancalana et al. (2010) Biochimica et Biophysica Acta. 1804 (7): 1405-1412]. […] Enzymol. 309, 274-284]. The time course for fibril formation often follows the characteristic shape of a sigmoidal curve and can be separated into three regions: a lag phase, a fast growth phase, and a plateau phase.
The typical fibril formation process starts with the lag phase in which the amount of partially folded peptide turned into fibrils is not significant enough to be detected. The lag-time corresponds to the time the critical mass of the nucleus is built. Afterwards, a drastic elongation phase follows and fibril concentration increases rapidly.
Investigations were carried out to determine fibrillation tendencies under stress conditions by shaking at 37° C. within Fluoroskan Ascent FL.
For the tests in Fluoroskan Ascent FL, 200 μL sample were placed into a 96 well mictrotiter plate PS, flat bottom, Greiner Fluotrac No. 655076. Plates were sealed with Scotch Tape (Quiagen). Samples were stressed by continuous cycles of 10 s shaking at 960 rpm and 50 s rest period at 37° C. The kinetic was monitored by measuring fluorescence intensity every 20 minutes.
Peptides were diluted in a buffer system to a final concentration of 3 mg/ml. 20 μL of a 10.1 mM ThT solution in H2O were added to 2 mL of peptide solution to receive a final concentration of 100 μM ThT. For each sample eight replicates were tested.
Tht buffer system A) 100 mM Acetate pH 4.5 including m-cresol (100 mM Natriumacetat trihydrat, pH adjustment using 2N CH3COOH, 2.7 mg/mL m-cresol) Tht buffer system B) 100 mM citrate buffer pH 6.0
Lag time in hours in Thioflavin T (ThT) assay of peptide samples was determined in ThT buffer system A as described in Methods.

[2] = biological target: T1, human GIP receptor (Homo sapiens, UniProt P48546); assay: cAMP response (HTRF) of HEK-293 cells stably expressing human GIP receptor; assay type: cell-based; conditions: Table 8; read-out: EC50 hGIP R
T1 construct: expressed in transfected cells; host or cells: HEK-293
T1 sequence (P48546 22-466): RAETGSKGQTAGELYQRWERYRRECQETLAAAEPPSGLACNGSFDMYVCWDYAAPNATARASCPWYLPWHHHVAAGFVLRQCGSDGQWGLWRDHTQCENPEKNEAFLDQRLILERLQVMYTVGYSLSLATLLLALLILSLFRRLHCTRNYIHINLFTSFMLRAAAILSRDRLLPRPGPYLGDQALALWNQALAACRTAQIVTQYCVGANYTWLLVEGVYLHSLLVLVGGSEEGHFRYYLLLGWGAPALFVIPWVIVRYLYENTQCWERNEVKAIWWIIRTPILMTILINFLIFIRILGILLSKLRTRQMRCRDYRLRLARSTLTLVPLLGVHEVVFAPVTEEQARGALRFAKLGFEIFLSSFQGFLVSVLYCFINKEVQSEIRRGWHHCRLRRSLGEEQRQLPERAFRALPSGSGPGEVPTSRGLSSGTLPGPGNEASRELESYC
Protocol: Agonism of compounds for the receptors was determined by functional assays measuring cAMP response of HEK-293 cell lines stably expressing human GLP-1, GIP or glucagon receptor.
(§1) cAMP content of cells was determined using a kit from Cisbio Corp. (cat. no. 62AM4PEJ) based on HTRF (Homogenous Time Resolved Fluorescence). For preparation, cells were split into T175 culture flasks and grown overnight to near confluency in medium (DMEM/10% FBS). Medium was then removed and cells washed with PBS lacking calcium and magnesium, followed by proteinase treatment with accutase (Sigma-Aldrich cat. no. A6964). Detached cells were washed and resuspended in assay buffer (1×HBSS; 20 mM HEPES, 0.1% BSA, 2 mM IBMX) and cellular density determined. They were then diluted to 400000 cells/ml and 25 μl-aliquots dispensed into the wells of 96-well plates. For measurement, 25 μl of test compound in assay buffer was added to the wells, followed by incubation for 30 minutes at room temperature. After addition of HTRF reagents diluted in lysis buffer (kit components), the plates were incubated for 1 hr, followed by measurement of the fluorescence ratio at 665/616 nm. In vitro potency of agonists was quantified by determining the concentrations that caused 50% activation of maximal response (EC50).
(§2) Potencies of peptidic compounds at the GLP-1, glucagon and GIP receptors were determined by exposing cells expressing human glucagon receptor (hGlucagon R), human GIP receptor (hGIP-R) or human GLP-1 receptor (hGLP-1 R) to the listed compounds at increasing concentrations and measuring the formed cAMP as described in Methods.

[3] = biological target: T2, human GLP-1 receptor (Homo sapiens, UniProt P43220); assay: cAMP response (HTRF) of HEK-293 cells stably expressing human GLP-1 receptor; assay type: cell-based; conditions: Table 8; read-out: EC50 hGLP-1R
T2 construct: expressed in transfected cells; host or cells: HEK-293
T2 sequence (P43220 24-463): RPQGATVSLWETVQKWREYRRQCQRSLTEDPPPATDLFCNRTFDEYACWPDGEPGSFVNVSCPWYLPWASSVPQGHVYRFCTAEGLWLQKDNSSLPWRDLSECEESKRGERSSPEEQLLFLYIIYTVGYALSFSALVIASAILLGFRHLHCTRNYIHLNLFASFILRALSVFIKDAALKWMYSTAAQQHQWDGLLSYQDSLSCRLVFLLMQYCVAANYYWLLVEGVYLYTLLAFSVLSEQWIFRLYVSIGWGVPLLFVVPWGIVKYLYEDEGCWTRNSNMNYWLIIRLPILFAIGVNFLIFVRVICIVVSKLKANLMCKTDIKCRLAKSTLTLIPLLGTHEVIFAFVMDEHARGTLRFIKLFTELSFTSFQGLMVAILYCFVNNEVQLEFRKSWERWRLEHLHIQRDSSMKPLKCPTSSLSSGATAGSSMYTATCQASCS
Protocol: as §1, with “temperature.” for “temperature. After addition of HTRF reagents diluted in lysis buffer (kit components), the plates were incubated for 1 hr, followed by measurement of the fluorescence ratio at 665/616 nm. In vitro potency of agonists was quantified by determining the concentrations that caused 50% activation of maximal response (EC50).”
as §2

[4] = Chemical stability assessment, UPLC-UV purity loss in buffer system A; assay type: physicochemical; conditions: 1 mg/ml, 25 mM acetate buffer pH 4.5 with m-cresol
Protocol: Prior to the chemical stability measurement of a peptide batch, its purity was determined through UPLC/MS. For stability testing the target concentration was 1 mg pure compound/ml. Therefore solutions from solid samples were prepared in a buffer system with a concentration of 1 mg/mL compound based on the previously determined % purity:
Chemical stability buffer system A) 25 mM acetate buffer pH 4.5, 3 mg/mL L-Methionine, 2.7 mg/mL m-cresol, 18 mg/mL Glycerol 85% Chemical stability buffer system B) 25 mM phosphate buffer pH 6.0, 3 mg/mL L-Methionine, 2.7 mg/mL m-cresol, 18 mg/mL Glycerol 85%
Peptide solutions were filtered through […] pore size and filled into aliquots under aseptic conditions. At starting point, UPLC-UV was performed by injection of 2 μl of the undiluted sample.
For chemical stability testing, aliquots were stored for 28 days at 5 and 40° C. After this time course the samples were centrifuged for 15 min at 2500 RCF. Then 2 μl of the undiluted supernatant were analysed with UPLC-UV.
The chemical stability was rated through the relative loss of purity calculated by the equation: [(purity at starting point)−(purity after 28 days at X° C.)]/(purity at starting point)]*100%
The purity is calculated as
[(peak area peptide)/(total peak area)]*100%
Peptide samples were prepared in Chemical stability buffer system A and the stability was assessed as described in Methods.

Lag time before increase [1]	EC50 [2]	EC50 [3]	Chemical stability [relative purity loss 28 days 40° C.] (%) at pH 4.5 [4]	SMILES
>45 h	1.5 pM	1.4 pM	8.6%	CCCCCCCCCCCCCCCC(=O)N[C@H](CCC(=O)NCCOCCOCC(=O)N[C@@H](CCC(=O)NCCCC[C@H](NC(=O)[C@H](CC(C)C)NC(=O)[C@H](CCCCN)NC(=O)[C@H](CO)NC(=O)[C@H](CC(C)C)NC(=O)[C@H](CC(=O)O)NC(=O)[C@H](CO)NC(=O)[C@@H](NC(=O)[C@H](Cc1ccccc1)NC(=O)[C@@H](NC(=O)CNC(=O)[C@H](Cc1c[nH]cn1)NC(=O)C(C)(C)NC(=O)[C@@H](N)Cc1c[nH]cn1)[C@@H](C)O)[C@@H](C)O)C(=O)N[C@@H](CCC(=O)O)C(=O)N[C@@H](CCC(=O)O)C(=O)N[C@@H](CCC(N)=O)C(=O)N[C@@H](CCCNC(=N)N)C(=O)N[C@@H](CCC(N)=O)C(=O)N[C@@H](CCCCN)C(=O)N[C@@H](CCC(=O)O)C(=O)N[C@@H](Cc1ccccc1)C(=O)N[C@H](C(=O)N[C@@H](CCC(=O)O)C(=O)N[C@@H](Cc1c[nH]c2ccccc12)C(=O)N[C@@H](CC(C)C)C(=O)N[C@@H](CCCCN)C(=O)N[C@@H](C)C(=O)N[C@H](C)C(=O)NCC(=O)N[C@@H](Cc1c[nH]cn1)C(=O)N1CCC[C@H]1C(=O)N[C@@H](CO)C(=O)NC(C)(C)C(=O)N[C@@H](CCCCN)C(=O)N1CCC[C@H]1C(=O)N1CCC[C@H]1C(=O)N1CCC[C@H]1C(=O)N[C@@H](CCCCN)C(N)=O)[C@@H](C)CC)C(=O)O)CC(=O)O [SEQ ID NO: 23, H-Aib-H-G-T-F-T-S-D-L-S-K-L-K[gGlu-AEEA-gAAA-Palm]-E-E-Q-R-Q-K-E-F-I-E-W-L-K-A-dAla-G-H-P-S-Aib-K-P-P-P-K-NH2] (H-H[Aib]HGTFTSDLSKLK([γGlu-AEEA-Adipoyl(4R-palmitoylamino)])EEQRQKEFIEWLKA[dA]GHPS[Aib]KPPPK-NH2)
>45 h	1.9 pM	–	–	CCCCCCCCCCCCCCCC(=O)N[C@@H](CCC(=O)NCCCC[C@H](NC(=O)[C@H](CC(C)C)NC(=O)[C@H](CCCCN)NC(=O)[C@H](CO)NC(=O)[C@H](CC(C)C)NC(=O)[C@H](CC(=O)O)NC(=O)[C@H](CO)NC(=O)[C@@H](NC(=O)[C@H](Cc1ccccc1)NC(=O)[C@@H](NC(=O)CNC(=O)[C@H](Cc1c[nH]cn1)NC(=O)C(C)(C)NC(=O)[C@@H](N)Cc1c[nH]cn1)[C@@H](C)O)[C@@H](C)O)C(=O)N[C@@H](CCC(=O)O)C(=O)N[C@@H](CCC(=O)O)C(=O)N[C@@H](CCC(N)=O)C(=O)N[C@@H](CCCNC(=N)N)C(=O)N[C@@H](CCC(N)=O)C(=O)N[C@@H](CCCCN)C(=O)N[C@@H](CCC(=O)O)C(=O)N[C@@H](Cc1ccccc1)C(=O)N[C@H](C(=O)N[C@@H](CCC(=O)O)C(=O)N[C@@H](Cc1c[nH]c2ccccc12)C(=O)N[C@@H](CC(C)C)C(=O)N[C@@H](CCCCN)C(=O)N[C@@H](C)C(=O)NCC(=O)NCC(=O)N1CCC[C@H]1C(=O)N1CCC[C@H]1C(=O)N[C@@H](CO)C(=O)NC(C)(C)C(=O)N[C@@H](CCCCN)C(=O)N1CCC[C@H]1C(=O)N1CCC[C@H]1C(=O)N1CCC[C@H]1C(=O)N[C@@H](CCCCN)C(N)=O)[C@@H](C)CC)C(=O)O [SEQ ID NO: 20, H-Aib-H-G-T-F-T-S-D-L-S-K-L-K[gGlu-Palm]-E-E-Q-R-Q-K-E-F-I-E-W-L-K-A-G-G-P-P-S-Aib-K-P-P-P-K-NH2]
>45 h	1.1 pM	–	9.5%	CCCCCCCCCCCCCCCC(=O)N[C@H](CCC(=O)NCCOCCOCC(=O)N[C@@H](CCC(=O)NCCCC[C@H](NC(=O)[C@H](CC(C)C)NC(=O)[C@H](CCCCN)NC(=O)[C@H](CO)NC(=O)[C@H](CC(C)C)NC(=O)[C@H](CC(=O)O)NC(=O)[C@H](CO)NC(=O)[C@@H](NC(=O)[C@H](Cc1ccccc1)NC(=O)[C@@H](NC(=O)CNC(=O)[C@H](Cc1c[nH]cn1)NC(=O)C(C)(C)NC(=O)[C@@H](N)Cc1c[nH]cn1)[C@@H](C)O)[C@@H](C)O)C(=O)N[C@@H](CCC(=O)O)C(=O)N[C@@H](CCC(=O)O)C(=O)N[C@@H](CCC(N)=O)C(=O)N[C@@H](CCCNC(=N)N)C(=O)N[C@@H](CCC(N)=O)C(=O)N[C@@H](CCCCN)C(=O)N[C@@H](CCC(=O)O)C(=O)N[C@@H](Cc1ccccc1)C(=O)N[C@H](C(=O)N[C@@H](CCC(=O)O)C(=O)N[C@@H](Cc1c[nH]c2ccccc12)C(=O)N[C@@H](CC(C)C)C(=O)N[C@@H](CCCCN)C(=O)N[C@@H](C)C(=O)NCC(=O)NCC(=O)N[C@@H](Cc1c[nH]cn1)C(=O)N1CCC[C@H]1C(=O)N[C@@H](CO)C(=O)NC(C)(C)C(=O)N[C@@H](CCCCN)C(=O)N1CCC[C@H]1C(=O)N1CCC[C@H]1C(=O)N1CCC[C@H]1C(=O)N[C@@H](CCCCN)C(N)=O)[C@@H](C)CC)C(=O)O)CC(=O)O [SEQ ID NO: 22, H-Aib-H-G-T-F-T-S-D-L-S-K-L-K[gGlu-AEEA-gAAA-Palm]-E-E-Q-R-Q-K-E-F-I-E-W-L-K-A-G-G-H-P-S-Aib-K-P-P-P-K-NH2] (H-H[Aib]HGTFTSDLSKLK([γGlu-AEEA-Adipoyl(4R-palmitoylamino)])EEQRQKEFIEWLKAGGHPS[Aib]KPPPK-NH2)
